Here are results for 3 molecules from paper PMC9258321, “Structure-guided design of CPPC-paired disulfide-rich peptide libraries for ligand and drug discovery” (Chemical Science, 2022).

Assay [1] concerns CD28 expressed on the surface of HEK293T cells. Description: Laser confocal cell imaging, labeling CD28 on HEK293T cells. The settings on record: HEK293T cells transfected with mCherry-CD28 vs mCherry control; 1 μM peptide in DMEM, 30 min, washed; confocal colocalization. The class given is cell-based. The protocol:
Finally, we examined the specific binding capability of drp8 to CD28 expressed on the surface of the cells. HEK293T cells transfected with a plasmid expressing the extracellular domain of CD28 fused with an extracellular-targeting signaling sequence, a fluorescent mCherry tag, and a transmembrane domain was constructed for the experiments. Briefly, the transfected cells were incubated with the fluorescein-labeled drp8 for 30 min, followed by washing with culture media to remove the unbound peptide. Confocal fluorescence images were then recorded (Fig. 5d), showing the colocalization of fluorescence from the mCherry tag and the labeled peptide.
Surface plasmon resonance (SPR) assay
The affinity of peptides to Keap1 was measured using Biacore T200 (GE healthcare) at 25℃. […]
NMR samples were dissolved in 80% perdeuterated acetonitrile and 20% H2O for drp1, 75% perdeu-terated acetonitrile and […] for drp2-a, 60% perdeuterated acetonitrile and 40% H2O for drp8, 50% perdeuterated acetonitrile and 50% H2O for drp3 and drp6, 40% perdeuterated acetonitrile and 60% H2O for drp2-b and drp4 (The solution conditions depend on the dispersion of cross -peaks). […] Two dimensional (2D) 1H, 15N/13C HSQC spectra were recorded to obtain chemical shifts of heavy atoms in backbone and side-chains. […]

Assay [2] deals with T1, CD28 (Homo sapiens, UniProt P10747).
T1 construct: purchased Sino Biological 11524-HCCH
Description: FP assay: CD80 added to premixed oxidized FITC-drp8 and CD28. The class given is binding. The settings on record: CD80 50-500 nM added to 25 nM oxidized FITC-drp8 and 100 nM CD28, PBS pH 7.4, 20 min room temperature, Fig. S22. As to the method:
(§1) min incubation at room temperature, the fluorescence anisotropies were measured using a plate reader (Eex= 485 nm, Eem=535 nm). All of the measurements were recorded in triplicate. In the fluorescence polarization assay s measuring the binding of reduced FITC-drp8 to CD28 and the binding of oxidized FITC-drp8 to CTLA-4, the fluorescence anisotrop ies were recorded in the same way as described above.
(§2) Dissociation constants ( KD) were determined by nonlinear regression analysis of anisotrop ies versus the concentrations of the protein using the following equation: […]
(§3) Y = A1 + (A2 − A1) × { 2×C } (1)
(§4) X: the concentration of protein, Y: the measured fluorescence anisotropy, C: the concentration of fluores-cent peptide, A1: the bottom plateaus of anisotropy, A2: the anisotropy signal in the presence of saturating concentrations of CD28, KD: the dissociation constant.
(§5) (b) Competition fluorescence polarization assay. The binding of drp8 to CD28 was measured by adding dilutions of drp8 to premixed oxidized FITC-drp8 and CD28 in PBS (pH 7.4). […] After 10 min incubation at room temperature, the plate was read using a plate reader (Eex= 485 nm, Eem = 535 nm). In the competition fluorescence polarization assay measuring the binding of drp1, drp7 and drp9 to CD28, the fluorescence anisotropies were recorded in the same way as described above. […]

In assay [3] the test system is CTLA-4. Description: Fluorescence polarization binding assay to CTLA-4. The settings on record: FP assay, oxidized fluorescein-labeled peptide; Fig. S23. As to the method:
as §1, §2, §3, §4, §5
(In general: Fluorescence polarisation rises when a labelled molecule tumbles more slowly, as on binding a larger partner.)

In assay [4] the target is T1, CD28. Description: Competition fluorescence polarization assay with oxidized FITC-drp8 as probe. The class given is binding. The settings on record: FP competition with oxidized FITC-drp8; negative control. The protocol: as §1, §2, §3, §4, §5

Bridge positions count the residues as written; N and C are the ends. Peptide text beside a SMILES is read from it. * marks the point of attachment. FITC = O=C1OC2(c3ccc(O)cc3Oc3cc(O)ccc32)c2ccc(NC(=S)*)cc21; βAla = NCCC(=O)O

T1 sequence (P10747 19-220): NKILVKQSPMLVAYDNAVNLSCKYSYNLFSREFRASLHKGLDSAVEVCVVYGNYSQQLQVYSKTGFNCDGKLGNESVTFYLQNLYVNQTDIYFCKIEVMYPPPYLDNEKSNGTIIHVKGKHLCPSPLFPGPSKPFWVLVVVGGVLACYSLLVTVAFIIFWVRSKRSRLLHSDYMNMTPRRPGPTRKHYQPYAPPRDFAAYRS

For the molecule `CC(C)C[C@@H]1NC(=O)CNC(=O)[C@H](CCC(=O)O)NC(=O)[C@@H]2CSSC[C@H](NC(=O)[C@H](CC(N)=O)NC(=O)[C@H](CC(N)=O)NC1=O)C(=O)N[C@@H](Cc1c[nH]c3ccccc13)C(=O)N[C@@H](Cc1ccccc1)C(=O)N[C@@H](C(C)C)C(=O)N[C@@H](CCC(=O)O)C(=O)N[C@@H](C)C(=O)N[C@H]1CSSC[C@H](NC(=O)CNC(=O)CCNC(=S)Nc3ccc4c(c3)C(=O)OC43c4ccc(O)cc4Oc4cc(O)ccc43)C(=O)N3CCC[C@H]3C(=O)N3CCC[C@H]3C(=O)N[C@@H](CSSC[C@@H](C(N)=O)NC(=O)[C@@H]3CCCN3C(=O)[C@@H]3CCCN3C1=O)C(=O)N1CCC[C@H]1C(=O)N[C@@H](CCCNC(=N)N)C(=O)N[C@@H](CCC(=O)O)C(=O)N[C@@H](Cc1c[nH]cn1)C(=O)N[C@@H](CCC(=O)O)C(=O)N[C@@H](CC(C)C)C(=O)N[C@@H](C(C)C)C(=O)N[C@@H](C)C(=O)N[C@@H](C(C)C)C(=O)N1CCC[C@H]1C(=O)N2` [FITC-drp8] ({FITC-βAla}-GCPPCPREHELVAVPCEGLNNCWFVEACPPC-NH2; disulfide 2-28, 5-31, 16-22), the “binding to CD28 on the cell surface (in words)” value in assay [1] is “can specifically bind with CD28 on the live cell surface”. Consider `CC(C)C[C@@H]1NC(=O)CNC(=O)[C@H](CCC(=O)O)NC(=O)[C@@H]2CSSC[C@H](NC(=O)[C@H](CC(N)=O)NC(=O)[C@H](CC(N)=O)NC1=O)C(=O)N[C@@H](Cc1c[nH]c3ccccc13)C(=O)N[C@@H](Cc1ccccc1)C(=O)N[C@@H](C(C)C)C(=O)N[C@@H](CCC(=O)O)C(=O)N[C@@H](C)C(=O)N[C@H]1CSSC[C@H](NC(=O)CN)C(=O)N3CCC[C@H]3C(=O)N3CCC[C@H]3C(=O)N[C@@H](CSSC[C@@H](C(N)=O)NC(=O)[C@@H]3CCCN3C(=O)[C@@H]3CCCN3C1=O)C(=O)N1CCC[C@H]1C(=O)N[C@@H](CCCNC(=N)N)C(=O)N[C@@H](CCC(=O)O)C(=O)N[C@@H](Cc1c[nH]cn1)C(=O)N[C@@H](CCC(=O)O)C(=O)N[C@@H](CC(C)C)C(=O)N[C@@H](C(C)C)C(=O)N[C@@H](C)C(=O)N[C@@H](C(C)C)C(=O)N1CCC[C@H]1C(=O)N2` [drp8] (H-GCPPCPREHELVAVPCEGLNNCWFVEACPPC-NH2; disulfide 2-28, 5-31, 16-22), for which, in assay [2], the “competition with CD80 for CD28 (in words)” value was “capable of blocking the CD80 and CD28 interaction”. Further, in assay [3], the “binding affinity to CTLA4 (in words)” value was “negligible binding affinity”. With “H-CPPCHGRPTCDSFTNCWELLTCPPC-NH2 (also: bicyclic or more (positions not given here)) [drp1, template and negative control for CD28]”, the “binding to CD28 in competition assay (in words)” value in assay [4] is listed as “negligibly binds with CD28”.
